Results reported in patent publication US7754739B2, “Modulators of CFTR” (Vertex Pharmaceuticals Incorporated, priority 2007, dated 2010).

Biological target: T1, ΔF508-CFTR (Homo sapiens, UniProt P13569, DEL508-508)
T1 construct: expressed in transfected cells; host or cells: NIH3T3 mouse fibroblasts, stably expressing
Assay: Membrane potential optical methods for assaying ΔF508-CFTR modulation properties of compounds
Format: cell-based
Settings: NIH3T3 cells expressing ΔF508-CFTR
Description: Assays for Detecting and Measuring ΔF508-CFTR Correction Properties of Compounds
Membrane potential optical methods for assaying ΔF508-CFTR modulation properties of compounds
The optical membrane potential assay utilized voltage-sensitive FRET sensors described by Gonzalez and Tsien (See, Gonzalez, J. E. and R. Y. Tsien (1995) “Voltage sensing by fluorescence resonance energy transfer in single cells” Biophys J 69(4): 1272-80, and Gonzalez, J. E. and R. Y. Tsien (1997) “Improved indicators of cell membrane potential that use fluorescence resonance energy transfer” Chem Biol 4(4): 269-77) in combination with instrumentation for measuring fluorescence changes such as the Voltage/Ion Probe Reader (VIPR) (See, Gonzalez, J. E., K. Oades, et al. (1999) “Cell-based assays and instrumentation for screening ion-channel targets” Drug Discov Today 4(9): 431-439).
These voltage sensitive assays are based on the change in fluorescence resonant energy transfer (FRET) between the membrane-soluble, voltage-sensitive dye, DiSBAC2(3), and a fluorescent phospholipid, CC2-DMPE, which is attached to the outer leaflet of the plasma membrane and acts as a FRET donor. Changes in membrane potential (Vm) cause the negatively charged DiSBAC2(3) to redistribute across the plasma membrane and the amount of energy transfer from CC2-DMPE changes accordingly. The changes in fluorescence emission were monitored using VIPR™ II, which is an integrated liquid handler and fluorescent detector designed to conduct cell-based screens in 96- or 384-well microtiter plates.
1. Identification of Correction Compounds
To identify small molecules that correct the trafficking defect associated with EF508-CFTR; a single-addition HTS assay format was developed. The cells were incubated in serum-free medium for 16 hrs at 37° C. in the presence or absence (negative control) of test compound. As a positive control, cells plated in 384-well plates were incubated for 16 hrs at 27° C. to “temperature-correct” ΔF508-CFTR. The cells were subsequently rinsed 3× with Krebs Ringers solution and loaded with the voltage-sensitive dyes. To activate ΔF508-CFTR, 10 μM forskolin and the CFTR potentiator, genistein (20 μM), were added along with Cl^−-free medium to each well. The addition of Cl^−-free medium promoted Cl^−-efflux in response to ΔF508-CFTR activation and the resulting membrane depolarization was optically monitored using the FRET-based voltage-sensor dyes.
2. […]
To identify potentiators of ΔF508-CFTR, a double-addition HTS assay format was developed. […] The extracellular Cl^−-concentration following both additions was 28 mM, which promoted Cl^−-efflux in response to ΔF508-CFTR activation and the resulting membrane depolarization was optically monitored using the FRET-based voltage-sensor dyes. […]

T1 sequence (P13569 with tags, fused parts or gaps DEL508-508): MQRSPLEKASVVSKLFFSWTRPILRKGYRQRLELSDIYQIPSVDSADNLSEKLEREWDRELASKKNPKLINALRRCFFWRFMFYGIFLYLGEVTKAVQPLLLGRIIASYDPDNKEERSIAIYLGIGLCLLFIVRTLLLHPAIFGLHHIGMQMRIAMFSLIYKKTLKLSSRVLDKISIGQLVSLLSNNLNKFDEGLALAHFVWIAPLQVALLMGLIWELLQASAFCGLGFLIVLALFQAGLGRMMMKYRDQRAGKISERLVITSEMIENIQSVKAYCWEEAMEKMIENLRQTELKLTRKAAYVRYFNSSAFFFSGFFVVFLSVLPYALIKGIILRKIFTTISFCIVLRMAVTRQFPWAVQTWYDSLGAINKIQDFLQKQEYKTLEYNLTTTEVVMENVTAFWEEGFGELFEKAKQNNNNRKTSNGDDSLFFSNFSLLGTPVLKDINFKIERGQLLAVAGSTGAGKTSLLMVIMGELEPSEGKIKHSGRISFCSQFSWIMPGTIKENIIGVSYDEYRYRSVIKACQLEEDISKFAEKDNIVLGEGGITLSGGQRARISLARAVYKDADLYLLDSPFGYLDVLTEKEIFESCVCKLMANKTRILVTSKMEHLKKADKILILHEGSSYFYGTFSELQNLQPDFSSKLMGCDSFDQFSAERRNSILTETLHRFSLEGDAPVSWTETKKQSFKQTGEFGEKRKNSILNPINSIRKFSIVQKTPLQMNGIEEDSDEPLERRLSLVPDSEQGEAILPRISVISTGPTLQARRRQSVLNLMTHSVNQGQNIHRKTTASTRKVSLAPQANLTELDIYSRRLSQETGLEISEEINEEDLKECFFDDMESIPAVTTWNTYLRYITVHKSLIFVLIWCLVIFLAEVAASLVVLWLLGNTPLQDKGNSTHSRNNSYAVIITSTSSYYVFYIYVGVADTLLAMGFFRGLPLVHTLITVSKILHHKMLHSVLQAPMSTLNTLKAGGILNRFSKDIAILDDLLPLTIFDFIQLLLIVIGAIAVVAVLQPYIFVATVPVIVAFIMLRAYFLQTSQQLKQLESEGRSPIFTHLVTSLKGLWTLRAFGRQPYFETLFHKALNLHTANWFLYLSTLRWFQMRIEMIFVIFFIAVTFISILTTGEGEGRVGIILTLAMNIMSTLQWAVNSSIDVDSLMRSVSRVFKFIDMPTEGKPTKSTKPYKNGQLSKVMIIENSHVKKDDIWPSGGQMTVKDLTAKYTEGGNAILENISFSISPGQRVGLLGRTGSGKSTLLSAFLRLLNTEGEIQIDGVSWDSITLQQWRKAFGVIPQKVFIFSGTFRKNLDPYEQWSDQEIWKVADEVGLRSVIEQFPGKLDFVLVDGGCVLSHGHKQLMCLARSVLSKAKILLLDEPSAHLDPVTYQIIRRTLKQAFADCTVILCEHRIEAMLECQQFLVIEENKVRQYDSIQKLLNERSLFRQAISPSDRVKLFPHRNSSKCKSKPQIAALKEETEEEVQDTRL

EC50 [nM]	Percent Efficacy	Structure (SMILES)
≤ 2000	+++ (100.0% < +++)	Cc1ccc(NC(=O)C2(c3ccc4c(c3)CCO4)CC2)nc1-c1cccc(C(=O)O)c1 [compound 2]
≤ 2000	+++ (100.0% < +++)	COc1ccc(C2(C(=O)Nc3ccc(C)c(-c4cccc(C(=O)O)c4)n3)CC2)cc1 [compound 1]
